Assay results: patent US5178662A, “Benzaldehyde acetal compounds, preparation process thereof, and herbicidal compositions containing the same as active ingredients” (Mitsui Toatsu Chemicals, Inc., priority 1990, dated 1993)

Tests used:
[1] = system: Barnyardgrass (Echinochloa crusgalli); test: Upland foliar application test, barnyardgrass; assay type: in vivo; conditions: Echinochloa crus-galli, 960 h; foliar application at stage of 2-3 leaves, 50 g ai/a, emulsion, 40th day after spray; read-out: Herbicidal effects Barnyardgrass (Echinochloa crusgalli)
Protocol: (§1) Resin-made 1/1000-are pots were filled with the soil of an upland field. After they were fertilized, cotton and soybean were seeded and 3 cm soil covering was applied. Five days later, amaranth, common lambsquarters, barnyardgrass, green foxtail, large crabgrass and johnsongrass were seeded and 1 cm soil covering was applied. They were allowed to grow in a green house. When each plant grew to the stage of 2-3 leaves, an emulsion formulated from a predetermined amount of each test compound in a similar manner to the procedures described in Formulation Example 11 was diluted with water and then sprayed at a predetermined application rate by means of a pressure-operated sprayer. The application rate was controlled at 5 l per are. Influence to the crops and weeds were observed on the 40th day after the spray of the herbicides. The results are shown in Table 4 in which the degree of damages of each test plant and the degree of injury to each crop are shown in a similar manner to Test 2.

[2] = system: Soybean (Glycine max); test: Upland soil application test, crop injury soybean; assay type: in vivo; conditions: soil application one day after seeding, 50 g ai/a, wettable powder, fresh weight on 50th day after spray
Protocol: (§2) Resin-made 1/1000-are pots were filled with the soil of an upland field. After they were fertilized, cotton and soybean were seeded and 3 cm soil covering was applied. In addition, amaranth, common lambs-quarters, barnyardgrass, green foxtail, large crabgrass and johnsongrass were seeded and 1 cm soil covering was applied. One day later, a wettable powder prepared from a predetermined amount of each test compound in a similar manner to the procedures described in Formulation Example 1 was diluted with water and then sprayed evenly at an application rate equal to 10 l per are onto the surface of the soil by means of a pressure-operated sprayer. The weeds and crops were allowed to grow in a green house and influence to them were observed on the 50th day after the spray. The degree of damages of each test plant and the degree of injury to each crop were determined by measuring fresh weight in each group and indicated by % calculated according to the following formula. [formula]

[3] = system: Foxtail (Setaria viridis); test: Upland foliar application test, green foxtail; assay type: in vivo; conditions: 960 h, foliar application at stage of 2-3 leaves, 50 g ai/a, emulsion, 40th day after spray, read-out: Herbicidal effects Foxtail (Setaria viridis)
Protocol: as §2, §1

[4] = system: Cotton (Gossypium indicum); test: Upland soil application test, crop injury cotton; assay type: in vivo; conditions: soil application one day after seeding, 50 g ai/a, wettable powder, fresh weight on 50th day after spray
Protocol: as §2

[5] = system: Johnsongrass; test: Upland soil application test, johnsongrass; assay type: in vivo; conditions: Sorghum halepense, 1200 h; soil application one day after seeding, 50 g ai/a, wettable powder, fresh weight on 50th day after spray; read-out: Herbicidal effects Johnsongrass
Protocol: as §2

[6] = system: Soybean (Glycine max); test: Upland foliar application test, crop injury soybean; assay type: in vivo; conditions: foliar application at stage of 2-3 leaves, 50 g ai/a, emulsion, 40th day after spray
Protocol: as §1

[7] = system: Crabgrass (Digitaria adscendens); test: Upland soil application test, large crabgrass; assay type: in vivo; conditions: 1200 h, soil application one day after seeding, 50 g ai/a, wettable powder, fresh weight on 50th day after spray, read-out: Herbicidal effects Crabgrass (Digitaria adscendens)
Protocol: as §2

[8] = system: Amaranth (Amaranthus viridis); test: Upland soil application test, amaranth; assay type: in vivo; conditions: 1200 h, soil application one day after seeding, 50 g ai/a, wettable powder, fresh weight on 50th day after spray, read-out: Herbicidal effects Amaranth (Amaranthus viridis)
Protocol: as §2

[9] = system: Johnsongrass; test: Upland foliar application test, johnsongrass; assay type: in vivo; conditions: Sorghum halepense, 960 h; foliar application at stage of 2-3 leaves, 50 g ai/a, emulsion, 40th day after spray; read-out: Herbicidal effects Johnsongrass
Protocol: as §1

[10] = system: ALS (acetolactate syntase) from pea seedlings; test: ALS (acetolactate syntase) inhibition test, pea enzyme; assay type: biochemical; conditions: 10,000 ppm (0.5 μg/0.5 ml) of compound; 1 hour at 30° C.; absorbance at 525 nm
Protocol: (§3) To determine the selectivity in enzyme level between crops and weeds, an ALS inhibition test was conducted using pea as a typical broadleaf crop and barnyardgrass as a representative gramineous weeds.
(§4) After seeds of pea and barnyardgrass were allowed to germinate at 25° C. for 8-14 days in a dark place, partially-purified suspensions (Suspensions A) of acetolactate syntase were separately obtained from the seedlings in accordance with the procedures described in the literature, Plant Physiology, 75, 827-831. In a test tube, 0.5 mg of one of test compounds was weighed, followed by the addition of 0.15 ml of a 20 mM K2 HPO4 solution and 0.25 ml of a reaction substrate medium which consisted of 40 mM of K2 HPO4, 40 mM of sodium pyruvate, 1 mM of TPP, 1 mM of MgCl2 and 20 μM of FAD so that 0.4 ml of a reaction solution (Solution B) was prepared. Added to 0.4 ml of Solution B was 0.1 ml of Suspension A. After the resultant mixture was shaken for 1 hour in a thermostat water bath controlled at 30° C., 50 μl of 6N sulfuric acid were added to terminate the reaction.
(§5) Next, the test tube with the reaction-terminated liquid mixture contained therein was transferred into a thermostat water bath controlled at 60° C. and was heated for 15 minutes. Thereafter, 0.5 ml of a 0.5% creatine solution and 0.5 ml of a 5% alkaline α-naphthol solution were added, and the resultant mixture was maintained at 60° C. for 15 minutes. As a result, the test solution developed a pink-to-red color. After the above operation, the absorbance of the test solution at 525 nm was measured by a spectrophotometer (Absorbance 1 of Test Compound).
(§6) Further, the absorbance (Absorbance 2 of Blank) of a solution obtained by subjecting a portion of Solution B to the above procedures without addition of any test compound and the absorbance (Absorbance 3 of sulfuric acid) of another solution obtained by subjecting another portion of Solution B to the above procedures which using 50 μl of 6N sulfuric acid as a test compound were also measured.

[11] = system: common lambsquarters; test: Upland soil application test, common lambsquarters; assay type: in vivo; conditions: Chenopodium album, 1200 h; soil application one day after seeding, 50 g ai/a, wettable powder, fresh weight on 50th day after spray; read-out: Herbicidal effects Common lambquarters
Protocol: as §2

[12] = system: Foxtail (Setaria viridis); test: Upland soil application test, green foxtail; assay type: in vivo; conditions: 1200 h, soil application one day after seeding, 50 g ai/a, wettable powder, fresh weight on 50th day after spray, read-out: Herbicidal effects Foxtail (Setaria viridis)
Protocol: as §2

[13] = system: Amaranth (Amaranthus viridis); test: Upland foliar application test, amaranth; assay type: in vivo; conditions: 960 h, foliar application at stage of 2-3 leaves, 50 g ai/a, emulsion, 40th day after spray, read-out: Herbicidal effects Amaranth (Amaranthus viridis)
Protocol: as §2, §1

[14] = system: Cotton (Gossypium indicum); test: Upland foliar application test, crop injury cotton; assay type: in vivo; conditions: foliar application at stage of 2-3 leaves, 50 g ai/a, emulsion, 40th day after spray
Protocol: as §2, §1

[15] = system: common lambsquarters; test: Upland foliar application test, common lambsquarters; assay type: in vivo; conditions: Chenopodium album, 960 h; foliar application at stage of 2-3 leaves, 50 g ai/a, emulsion, 40th day after spray; read-out: Herbicidal effects Common lambquarters
Protocol: as §1

[16] = system: johnsongrass emerging from rhizome; test: Application test on johnsongrass emerging from rhizome; assay type: in vivo; conditions: foliar application at stage of 4-5 leaves, application rate of active ingredient 20 (unit not given), emulsion, 50th day after spray
Protocol: as §2
Resin-made 1/1000-are pots were filled with the soil of an upland field. After they were fertilized, rhizome of johnsongrass were transplanted to the pots and 3 cm soil covering was applied. They were allowed to grow in a green house. When each johnsongrass grew to the stage of 4-5 leaves, an emulsion formulated from a predetermined amount of each test compound in a similar manner to the procedures described in Formulation Example 11 was diluted with water and then sprayed at a predetermined application rate by means of a pressure-operated sprayer. The application rate was controlled at 5 l per are. The effect of each compound against the johnsongrass emerging from its rhizome was observed on the 50th day after the spray of the herbicides. The results are shown in Table 5 in which the herbicidal effect against johnsongrass is shown in a similar manner to Test 2.

[17] = system: ALS (acetolactate syntase) from barnyardgrass seedlings; test: ALS (acetolactate syntase) inhibition test, barnyardgrass enzyme; assay type: biochemical; conditions: 10,000 ppm (0.5 μg/0.5 ml) of compound; 1 hour at 30° C.; absorbance at 525 nm
Protocol: as §3, §4, §5, §6

[18] = system: Barnyardgrass (Echinochloa crusgalli); test: Upland soil application test, barnyardgrass; assay type: in vivo; conditions: Echinochloa crus-galli, 1200 h; soil application one day after seeding, 50 g ai/a, wettable powder, fresh weight on 50th day after spray; read-out: Herbicidal effects Barnyardgrass (Echinochloa crusgalli)
Protocol: as §2

[19] = system: Crabgrass (Digitaria adscendens); test: Upland foliar application test, large crabgrass; assay type: in vivo; conditions: 960 h, foliar application at stage of 2-3 leaves, 50 g ai/a, emulsion, 40th day after spray, read-out: Herbicidal effects Crabgrass (Digitaria adscendens)
Protocol: as §2, §1

For `CCCCOC(OCCCC)c1ccccc1Oc1nc(OC)cc(OC)n1` [Compound No. 3, 2-(4,6-dimethoxypyrimidin-2-yloxy)benzaldehyde di-n-butylacetal], which pest or weed control at 5000 g/ha [1] is on record?
Its pest or weed control at 5000 g/ha is 100%.

What about the “Crop injury Soybean (Glycine max)” value [2] of the same molecule?
The value was 0%.

And the pest or weed control at 5000 g/ha [3]?
The pest or weed control at 5000 g/ha was 100%.

And the “Crop injury Cotton (Gossypium indicum)” value [4]?
The value was 0%.

What about the pest or weed control at 5000 g/ha [5] of the same molecule?
Its pest or weed control at 5000 g/ha is 100%.

What about the “Crop injury Soybean (Glycine max)” value [6] of the same molecule?
Its value is 0%.

And the pest or weed control at 5000 g/ha [7]?
Its pest or weed control at 5000 g/ha is 100%.

What about the pest or weed control at 5000 g/ha [8] of the same molecule?
The pest or weed control at 5000 g/ha was 100%.

And the pest or weed control at 5000 g/ha [9]?
The pest or weed control at 5000 g/ha was 100%.

And the “Enzymoreaction inhibition rate (%) Pea” value [10]?
The value was 0%.

What about the pest or weed control at 5000 g/ha [11] of the same molecule?
Its pest or weed control at 5000 g/ha is 100%.

What about the pest or weed control at 5000 g/ha [12] of the same molecule?
Its pest or weed control at 5000 g/ha is 100%.

And the pest or weed control at 5000 g/ha [13]?
Its pest or weed control at 5000 g/ha is 100%.

What about the “Crop injury Cotton (Gossypium indicum)” value [14] of the same molecule?
The value was 0%.

What about the pest or weed control at 5000 g/ha [15] of the same molecule?
The pest or weed control at 5000 g/ha was 100%.

And the “Herbicidal effect against johnsongrass emerging from rhizome” value [16]?
Its value is 100%.

What about the “Enzymoreaction inhibition rate (%) Barnyardgrass” value [17] of the same molecule?
The value was 100%.

What about the pest or weed control at 5000 g/ha [18] of the same molecule?
Its pest or weed control at 5000 g/ha is 100%.

And the pest or weed control at 5000 g/ha [19]?
Its pest or weed control at 5000 g/ha is 100%.

`CCCOC(OCCC)c1ccccc1Oc1nc(OC)cc(OC)n1` [Compound No. 1] was tested. Which pest or weed control at 5000 g/ha [1] did it give?
The pest or weed control at 5000 g/ha was 100%.

What about the “Crop injury Soybean (Glycine max)” value [2] of the same molecule?
The value was 0%.

And the pest or weed control at 5000 g/ha [3]?
Its pest or weed control at 5000 g/ha is 100%.

What about the “Crop injury Cotton (Gossypium indicum)” value [4] of the same molecule?
Its value is 0%.

What about the pest or weed control at 5000 g/ha [5] of the same molecule?
The pest or weed control at 5000 g/ha was 100%.

What about the “Crop injury Soybean (Glycine max)” value [6] of the same molecule?
The value was 0%.

And the pest or weed control at 5000 g/ha [7]?
Its pest or weed control at 5000 g/ha is 100%.

What about the pest or weed control at 5000 g/ha [8] of the same molecule?
Its pest or weed control at 5000 g/ha is 100%.

What about the pest or weed control at 5000 g/ha [9] of the same molecule?
Its pest or weed control at 5000 g/ha is 100%.

What about the “Enzymoreaction inhibition rate (%) Pea” value [10] of the same molecule?
Its value is 0%.

And the pest or weed control at 5000 g/ha [11]?
Its pest or weed control at 5000 g/ha is 100%.

What about the pest or weed control at 5000 g/ha [12] of the same molecule?
Its pest or weed control at 5000 g/ha is 100%.

And the pest or weed control at 5000 g/ha [13]?
The pest or weed control at 5000 g/ha was 100%.

What about the “Crop injury Cotton (Gossypium indicum)” value [14] of the same molecule?
Its value is 0%.

And the pest or weed control at 5000 g/ha [15]?
Its pest or weed control at 5000 g/ha is 100%.

What about the “Herbicidal effect against johnsongrass emerging from rhizome” value [16] of the same molecule?
Its value is 100%.

And the “Enzymoreaction inhibition rate (%) Barnyardgrass” value [17]?
The value was 100%.

And the pest or weed control at 5000 g/ha [18]?
The pest or weed control at 5000 g/ha was 100%.

And the pest or weed control at 5000 g/ha [19]?
The pest or weed control at 5000 g/ha was 100%.
